Results as given in PubChem BioAssay (NCI).
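96-well plates; 48 h exposure; 5 concentrations. Endpoints by linear interpolation between flanking doses. Not reached: highest tested concentration assigned. At the GI50, growth is halved. TGI: total growth inhibition.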

What was measured:
Experiment in all cases: growth of human tumour cells (NCI), 48 h
SR leukemia = tested on: SR leukemia
SK-MEL-2 melanoma = tested on: SK-MEL-2 melanoma
SK-MEL-28 melanoma = tested on: SK-MEL-28 melanoma
OVCAR-8 ovarian = tested on: OVCAR-8 ovarian
DU-145 prostate = tested on: DU-145 prostate
MDA-MB-231 breast = tested on: MDA-MB-231 breast
IGROV1 ovarian = tested on: IGROV1 ovarian
LOX IMVI melanoma = tested on: LOX IMVI melanoma
786-0 renal = tested on: 786-0 renal
NCI-H226 lung = tested on: NCI-H226 lung

Q: For C/C(=N\N=C(N)N)C(CN(C)C)C(c1ccccc1)c1c(O)c2ccccc2oc1=O (stereo not given), which TGI (SR leukemia) is on record?
A: Its TGI is > 100 µM.

Q: And the TGI (SK-MEL-2 melanoma)?
A: Its TGI is > 100 µM.

Q: What about the TGI (SK-MEL-28 melanoma) of the same molecule?
A: The TGI was > 100 µM.

Q: And the TGI (OVCAR-8 ovarian)?
A: Its TGI is > 100 µM.

Q: What about the TGI (DU-145 prostate) of the same molecule?
A: The TGI was > 100 µM.

Q: What about the TGI (MDA-MB-231 breast) of the same molecule?
A: Its TGI is > 100 µM.

Q: What about the TGI (IGROV1 ovarian) of the same molecule?
A: Its TGI is > 100 µM.

Q: What about the TGI (LOX IMVI melanoma) of the same molecule?
A: Its TGI is > 100 µM.

Q: And the TGI (786-0 renal)?
A: Its TGI is > 100 µM.

Q: And the TGI (NCI-H226 lung)?
A: Its TGI is > 100 µM.

Q: What does the source list for C=C1C(=O)O[C@H]2[C@H]1CC/C(Cn1cc(-c3cc(C)c(C)cc3C)nn1)=C\CC[C@@]1(C)O[C@@H]21?
A: GI50 (SR leukemia): 1.26 µM; TGI (SR leukemia): 7.8 µM; GI50 (SK-MEL-2 melanoma): 1.75 µM; TGI (SK-MEL-2 melanoma): 3.59 µM; GI50 (SK-MEL-28 melanoma): 1.4 µM; TGI (SK-MEL-28 melanoma): 2.89 µM; GI50 (OVCAR-8 ovarian): 0.927 µM; TGI (OVCAR-8 ovarian): 2.38 µM; GI50 (DU-145 prostate): 1.35 µM; TGI (DU-145 prostate): 2.63 µM; GI50 (MDA-MB-231 breast): 1.11 µM; TGI (MDA-MB-231 breast): 2.62 µM; GI50 (IGROV1 ovarian): 1.29 µM; TGI (IGROV1 ovarian): 2.74 µM; GI50 (LOX IMVI melanoma): 0.725 µM; TGI (LOX IMVI melanoma): 2.1 µM; GI50 (786-0 renal): 1.5 µM; TGI (786-0 renal): 3.18 µM; GI50 (NCI-H226 lung): 1.46 µM; TGI (NCI-H226 lung): 3.07 µM

Q: With Cc1c(N=Cc2ccc(N(CCC#N)CCC#N)cc2)c(=O)n(-c2ccccc2)n1C as the molecule, how does the TGI (SR leukemia) read?
A: Its TGI is > 100 µM.

Q: And the TGI (SK-MEL-2 melanoma)?
A: Its TGI is > 100 µM.

Q: And the TGI (SK-MEL-28 melanoma)?
A: Its TGI is > 100 µM.

Q: What about the TGI (OVCAR-8 ovarian) of the same molecule?
A: The TGI was > 100 µM.

Q: What about the TGI (DU-145 prostate) of the same molecule?
A: Its TGI is > 100 µM.

Q: And the TGI (MDA-MB-231 breast)?
A: Its TGI is > 100 µM.

Q: What about the TGI (IGROV1 ovarian) of the same molecule?
A: The TGI was > 100 µM.

Q: What about the TGI (LOX IMVI melanoma) of the same molecule?
A: Its TGI is > 100 µM.

Q: And the TGI (786-0 renal)?
A: The TGI was 90.3 µM.

Q: And the TGI (NCI-H226 lung)?
A: The TGI was > 100 µM.

Q: How did the GI50 (SR leukemia) turn out when COc1cc(OC)c(C(=O)/C=C/c2cccc(OC(C)=O)c2)cc1CC=C(C)C was run?
A: Its GI50 is 1.74 µM.

Q: What about the TGI (SR leukemia) of the same molecule?
A: The TGI was 16.1 µM.

Q: What about the GI50 (SK-MEL-2 melanoma) of the same molecule?
A: Its GI50 is 8.9 µM.

Q: What about the TGI (SK-MEL-2 melanoma) of the same molecule?
A: Its TGI is 35.6 µM.

Q: And the GI50 (SK-MEL-28 melanoma)?
A: Its GI50 is 9.52 µM.

Q: And the TGI (SK-MEL-28 melanoma)?
A: The TGI was 22.2 µM.

Q: And the GI50 (OVCAR-8 ovarian)?
A: Its GI50 is 8.38 µM.

Q: And the TGI (OVCAR-8 ovarian)?
A: The TGI was > 50 µM.

Q: What about the GI50 (DU-145 prostate) of the same molecule?
A: The GI50 was 6.18 µM.

Q: And the TGI (DU-145 prostate)?
A: Its TGI is 14.6 µM.

Q: What about the GI50 (MDA-MB-231 breast) of the same molecule?
A: The GI50 was 13.1 µM.

Q: What about the TGI (MDA-MB-231 breast) of the same molecule?
A: The TGI was > 50 µM.

Q: What about the GI50 (IGROV1 ovarian) of the same molecule?
A: The GI50 was 15.9 µM.

Q: And the TGI (IGROV1 ovarian)?
A: The TGI was > 50 µM.

Q: What about the GI50 (LOX IMVI melanoma) of the same molecule?
A: Its GI50 is 6.29 µM.

Q: What about the TGI (LOX IMVI melanoma) of the same molecule?
A: The TGI was 13.1 µM.

Q: What about the GI50 (786-0 renal) of the same molecule?
A: The GI50 was 9.85 µM.

Q: And the TGI (786-0 renal)?
A: Its TGI is 19.8 µM.

Q: And the GI50 (NCI-H226 lung)?
A: The GI50 was 12.8 µM.

Q: What about the TGI (NCI-H226 lung) of the same molecule?
A: The TGI was 40.7 µM.

Q: Which GI50 (SR leukemia) does the source give for O=C(Nc1cccc(-n2cc(-c3ccncc3)c(-c3ccc(O)c(Cl)c3)n2)c1)Nc1cccc(C(F)(F)F)c1 here?
A: Its GI50 is 1.02 µM.

Q: And the TGI (SR leukemia)?
A: Its TGI is 4.71 µM.

Q: What about the GI50 (SK-MEL-2 melanoma) of the same molecule?
A: The GI50 was 2.35 µM.

Q: What about the TGI (SK-MEL-2 melanoma) of the same molecule?
A: Its TGI is 4.75 µM.

Q: What about the GI50 (SK-MEL-28 melanoma) of the same molecule?
A: Its GI50 is 1.95 µM.

Q: What about the TGI (SK-MEL-28 melanoma) of the same molecule?
A: The TGI was 6.18 µM.

Q: What about the GI50 (OVCAR-8 ovarian) of the same molecule?
A: Its GI50 is 2.41 µM.

Q: What about the TGI (OVCAR-8 ovarian) of the same molecule?
A: Its TGI is 11.1 µM.

Q: And the GI50 (DU-145 prostate)?
A: The GI50 was 3.01 µM.

Q: And the TGI (DU-145 prostate)?
A: The TGI was 11.8 µM.

Q: What about the GI50 (MDA-MB-231 breast) of the same molecule?
A: Its GI50 is 2.24 µM.

Q: What about the TGI (MDA-MB-231 breast) of the same molecule?
A: The TGI was 16.9 µM.

Q: What about the GI50 (IGROV1 ovarian) of the same molecule?
A: Its GI50 is 2.47 µM.

Q: What about the TGI (IGROV1 ovarian) of the same molecule?
A: The TGI was 5.98 µM.

Q: What about the GI50 (LOX IMVI melanoma) of the same molecule?
A: Its GI50 is 2.11 µM.

Q: And the TGI (LOX IMVI melanoma)?
A: The TGI was 5.87 µM.

Q: And the GI50 (786-0 renal)?
A: The GI50 was 2.15 µM.

Q: And the TGI (786-0 renal)?
A: Its TGI is 9.2 µM.

Q: And the GI50 (NCI-H226 lung)?
A: The GI50 was 2.52 µM.

Q: What about the TGI (NCI-H226 lung) of the same molecule?
A: Its TGI is 9.02 µM.

Q: What does the source list for CN1CCN(c2ccc(C(=O)Nc3cc(-c4cccc(NS(=O)(=O)c5ccccc5)c4)[nH]n3)cc2)CC1?
A: GI50 (SR leukemia): 2 µM; TGI (SR leukemia): 5.33 µM; GI50 (SK-MEL-2 melanoma): 6.85 µM; TGI (SK-MEL-2 melanoma): 20.2 µM; GI50 (SK-MEL-28 melanoma): 11.4 µM; TGI (SK-MEL-28 melanoma): 27 µM; GI50 (OVCAR-8 ovarian): 13.4 µM; TGI (OVCAR-8 ovarian): 32.3 µM; GI50 (DU-145 prostate): 8.52 µM; TGI (DU-145 prostate): 21.2 µM; GI50 (MDA-MB-231 breast): 3.53 µM; TGI (MDA-MB-231 breast): 12.2 µM; GI50 (IGROV1 ovarian): 2.64 µM; TGI (IGROV1 ovarian): 21.9 µM; GI50 (LOX IMVI melanoma): 3.05 µM; TGI (LOX IMVI melanoma): 13.2 µM; GI50 (786-0 renal): 4.8 µM; TGI (786-0 renal): 24.2 µM; GI50 (NCI-H226 lung): 12.6 µM; TGI (NCI-H226 lung): 40 µM

Q: What does the source list for Cn1c(=O)c(Oc2ccccc2)cc2cnc(NC3CCOCC3)nc21?
A: GI50 (SR leukemia): > 25 µM; TGI (SR leukemia): > 25 µM; GI50 (SK-MEL-2 melanoma): > 25 µM; TGI (SK-MEL-2 melanoma): > 25 µM; GI50 (SK-MEL-28 melanoma): > 25 µM; TGI (SK-MEL-28 melanoma): > 25 µM; GI50 (OVCAR-8 ovarian): > 25 µM; TGI (OVCAR-8 ovarian): > 25 µM; GI50 (DU-145 prostate): > 25 µM; TGI (DU-145 prostate): > 25 µM; GI50 (MDA-MB-231 breast): > 25 µM; TGI (MDA-MB-231 breast): > 25 µM; GI50 (IGROV1 ovarian): > 25 µM; TGI (IGROV1 ovarian): > 25 µM; GI50 (LOX IMVI melanoma): > 25 µM; TGI (LOX IMVI melanoma): > 25 µM; GI50 (786-0 renal): > 25 µM; TGI (786-0 renal): > 25 µM; GI50 (NCI-H226 lung): > 25 µM; TGI (NCI-H226 lung): > 25 µM
